Assay results from US12157749B2, “Borate-based drug and use thereof” (Chengdu Origin Biotechnology Limited Company, priority 2018, dated 2024).
Values joined by “and” are separate entries in the source; they are usually repeats but may differ in a detail not shown here. Equal entries are not always repeated. “Also recorded” adds a separate entry of the source. Structures can show the parent of a compound that is named as a salt. Marks after values point to notes of the source that are not given here.

Columns and labels:
[1] = tested on: transplantation tumor of human multiple myeloma MM.1S; assay: Transplantation tumor model of human multiple myeloma cells MM.1S in CB17-SCID mouse, dose 0.00831 mmol/kg (Activity Experiment Example 2); format: in vivo; settings: for tumor weight (g): X ± SD, tumor dissected on day 19; for tumor weight (g) / tumor inhibition rate (%): five doses; for Relative tumor proliferation rate T/C(%): 0.00831 mmol/kg oral gavage twice a week; for tumor inhibition rate (%): from tumor weight
Procedure: The model used in this experiment was the transplantation tumor model of human multiple myeloma cells line MM.1 S in CB17-SCID mouse (purchased from Beijing Weitong Lihua Experimental Animal Technology Co., Ltd.). Cryopreserved MM.1S cells were cultured in vitro by conventionally way after resuscitation. The cells were collected in logarithmic growth phase and diluted with serum-free culture medium or PBS to form a tumor cell suspension with a concentration of 5×10^7/ml. The tumor cell suspensions prepared above were taken with a 1 ml syringe and injected subcutaneously into the left armpit backrest side of the mouse, and 0.2 ml was injected into each inoculation site. About 1 to 2 weeks after the cultured tumor cells were injected into CB17-SCID mouse, the tumors were touched under the armpit. When the tumor volume was more than 100 mm^3, the tumor volume was measured and calculated, and the mice were randomly divided into groups according to the tumor volume. The administration doses of different test samples were equivalent doses on a molar basis with a specific dose of 0.00831 mmol/kg. Administration mode and frequency: The test samples were administered by oral gavage with a volume of 10 ml/kg. The model group was given equal volume of solvent. The test samples were administered twice a week for five times (with administration dose of 0.00831 mmol/kg, i.e., the dose of MLN9708 being 4.30 mg/kg, the dose of the compound 6a being 4.67 mg/kg, and the dose of the compound 6b being 4.53 mg/kg) for a duration of 19 days. The administration was conducted on the 1st, 4th, 8th, 11th and 15th day, and the experiment was finished on the 19th day. The mental state, activity, eating and other general conditions of mice were observed every day, and the weight was measured twice a week. The short diameter (a) and long diameter (b) of each mouse tumor were measured with vernier caliper twice a week, and the tumor volume was calculated according to formula (a^2×b)/2. The relative tumor volume (RTV) was calculated according to the measured tumor volume, RTV=Vt/V0. Wherein, V0 was the tumor volume when random grouping (i.e. d0) and Vt was the tumor volume at each measurement (i.e. dn). According to the following formula, evaluation index of anti-tumor activity, the relative tumor proliferation rate T/C (%), was calculated: Note: TRTV is RTV of treatment group, and CRTV is RTV of model control group. Efficacy evaluation standard is T/C %≤40%, and after statistics procession, p<0.05 is considered significant. On the 19th day, after the tumor was weighted and measured, the mice in each group were killed, and the tumor was dissected and weighed. According to the tumor weight, the tumor inhibition rate (TGI) was calculated, TGI=((average tumor weight of model group−average tumor weight of administration group)/average tumor weight of model group)×100%.

[2] = tested on: transplantation tumor of human multiple myeloma MM.1S; assay: Transplantation tumor model of human multiple myeloma cells MM.1S in CB17-SCID mouse, low dose 0.00554 mmol/kg (Activity Experiment Example 4); format: in vivo; settings: for area under the curve of tumor volume vs. time curve, ascending sequence: FIG. 2; for Relative tumor proliferation rate T/C(%): 0.00554 mmol/kg oral gavage twice a week; for tumor inhibition rate (%): from tumor weight at end of experiment
Procedure: The model used in this experiment was the transplantation tumor model of human multiple myeloma cells line MM.1S in CB17-SCID mouse. Cryopreserved MM.1S cells were cultured in vitro conventionally after resuscitation. The cells were collected in logarithmic growth phase and diluted with serum-free culture medium or PBS to form a tumor cell suspension with a concentration of 5×10^7/ml. The tumor cell suspensions prepared above were taken with a 1 ml syringe and injected subcutaneously into the left armpit backrest side of the mouse, and 0.2 ml was injected into each inoculation site. About 1 to 2 weeks after the cultured tumor cells were injected into the CB17-SCID mouse, the tumors were touched under the armpit. When the tumor volume was more than 100 mm^3, the tumor volume was measured and calculated, and the mice were randomly divided into groups according to the tumor volume. The administration doses of different test samples were equivalent doses on a molar basis with a specific dose of 0.00554 mmol/kg. Administration mode and frequency: the test samples were administered by oral gavage with a volume of 10 ml/kg. The model group was given equal volume of solvent. The test samples were administered twice a week for five times with an administration dose of 0.00554 mmol/kg, i.e., the dose of MLN9708 being 2.86 mg/kg, the dose of the compound 6q being 2.77 mg/kg, the dose of the compound 6f being 2.80 mg/kg, and the dose of the compound 6b being 3.02 mg/kg, for a duration of 17 days. The administration was conducted on the 1st, 5th, 8th, 12th and 15th day, and the experiment was finished on the 17th day. The mental state, activity, eating and other general conditions of mice were observed every day, and the weight was measured twice a week. The short diameter (a) and long diameter (b) of each mouse tumor were measured with a vernier caliper twice a week, and the tumor volume was calculated according to formula (a^2×b)/2. The relative tumor volume (RTV) was calculated according to the measured tumor volume, RTV=Vt/V0. Wherein, V0 was the tumor volume when random grouping (i.e. d0) and Vt was the tumor volume at each measurement (i.e. […]). According to the following formula, evaluation index of anti-tumor activity relative to the relative tumor proliferation rate T/C (%) was calculated: Note: TRTV is RTV of treatment group, and CRTV is RTV of model control group. According to “Technical Guidelines for Non-clinical Research of Cytotoxic Antitumor Drugs” issued by State Food and Drug Administration in China, the evaluation standard is T/C %≤40%, and after statistics procession, p<0.05 is considered significant. On the 19th day, after the tumor was weighted and measured, the mice in each group were killed, and the tumor was dissected and weighed. According to the tumor weight, the tumor inhibition rate (TGI) was calculated, TGI=((average tumor weight of model group−average tumor weight of administration group)/average tumor weight of model group)×100%.

[3] = day 19, 0.00831 mmol/kg oral gavage
[4] = X ± SD, tumor dissected at end of experiment, 0.00554 mmol/kg oral gavage, five doses
[5] = 0.00554 mmol/kg oral gavage, five doses

Structure (SMILES): CC(C)C[C@H](NC(=O)CNC(=O)c1cc(Br)ccc1Cl)B1OC(=O)C(CC(=O)O)(CC(=O)O)O1 [Compound 6a, (R)-2,2′-(2-(1-(2-(2-chloro-5-bromo-benzoylamino)acetylamino)-3-methylbutyl)-5-oxo-1,3,2-dioxaborolan-4,4-diyl)diacetic acid]
- tumor weight (g) ([1]; 0.00831 mmol/kg oral gavage): 2.471 ± 0.598^★★▴▴ g
- Relative tumor proliferation rate T/C(%) ([1]; day 4): 87.94%
- Relative tumor proliferation rate T/C(%) ([1]; day 8): 69.95%
- Relative tumor proliferation rate T/C(%) ([1]; day 11): 88.41^▴ %
- Relative tumor proliferation rate T/C(%) ([1]; day 15): 94.56^▴ %
- Relative tumor proliferation rate T/C(%) ([1]; day 19): 80.45%
- tumor inhibition rate (%) [1, 3]: 31.63%

Structure (SMILES): CC(C)C[C@H](NC(=O)CNC(=O)c1cc(Br)ccc1F)B1OC(=O)C(CC(=O)O)(CC(=O)O)O1 [Compound 6b, (R)-2,2′-(2-(1-(2-(2-fluoro-5-bromo-benzoylamino)acetylamino)-3-methylbutyl)-5-oxo-1,3,2-dioxaborolan-4,4-diyl)diacetic acid]
- inhibition of tumor growth (in words) ([1]; 0.00831 mmol/kg oral gavage): can significantly inhibit tumor growth
- inhibitory effect on tumor growth compared with MLN9708 and compound 6a ([1]; 0.00831 mmol/kg oral gavage): significantly stronger inhibitory effect on tumor growth than MLN9708(p<0.01) and the compound 6a(p<0.01)
- tumor weight (g) ([1]; 0.00831 mmol/kg oral gavage): 0.063 ± 0.072^★★ g
- Relative tumor proliferation rate T/C(%) ([1]; day 4): 48.84^▴ %
- Relative tumor proliferation rate T/C(%) ([1]; day 8): 4.3^▴▴ %
- Relative tumor proliferation rate T/C(%) ([1]; day 11): 1.75^▴▴ %
- Relative tumor proliferation rate T/C(%) ([1]; day 15): 1.12^▴▴ %
- Relative tumor proliferation rate T/C(%) ([1]; day 19): 0.5^▴▴ %
- tumor inhibition rate (%) [1, 3]: 98.26%
- inhibitory effect on tumor growth compared with compound 6c ([1]; same method and procedure, data not shown): significantly stronger inhibitory effect on tumor growth of the transplantation tumor of human multiple myeloma MM.1S in SCID mouse than that of the compound 6c
- inhibition of tumor growth (in words) ([2]; 0.00554 mmol/kg oral gavage): can significantly inhibit tumor growth
- inhibitory effect on tumor growth compared with other test samples ([2]; 0.00554 mmol/kg oral gavage): significantly stronger inhibitory effect on tumor growth than MLN9708(p<0.01); also recorded: has the fastest effect on tumor growth and has the strongest inhibitory activity
- inhibitory effect sequence on transplantation tumor growth from strong to weak ([2]; 0.00554 mmol/kg oral gavage): 6b>6f>6q>MLN9708
- area under the curve of tumor volume vs. time curve, ascending sequence ([2]; 0.00554 mmol/kg oral gavage): compound 6b<compound 6f<compound 6q
- tumor weight (g) [2, 4]: 0.360 ± 0.415^★★▴▴ g
- Relative tumor proliferation rate T/C(%) ([2]; day 5): 18%
- Relative tumor proliferation rate T/C(%) ([2]; day 8): 5.86^▴▴ %
- Relative tumor proliferation rate T/C(%) ([2]; day 12): 9.04%
- Relative tumor proliferation rate T/C(%) ([2]; day 15): 10.59^▴▴ %
- Relative tumor proliferation rate T/C(%) ([2]; day 17): 9.06^▴▴ %
- tumor inhibition rate (%) [2, 5]: 87.75%

Structure (SMILES): CC(C)C[C@H](NC(=O)CNC(=O)c1cc(Br)ccc1F)B1OC(=O)C(c2ccccc2)O1 (stereo partly drawn) [Compound 6f, 2-fluoro-5-bromo-N-[2-({(1R)-3-methyl-1-[4-oxo-5-phenyl-1,3,2-dioxaborolan-2-yl]butyl}amino)-2-oxoethyl]benzamide]
- inhibition of tumor growth (in words) ([2]; 0.00554 mmol/kg oral gavage): can also significantly inhibit tumor growth
- inhibitory effect on tumor growth compared with other test samples ([2]; 0.00554 mmol/kg oral gavage): the inhibitory effect is weaker than that of compound 6b; also recorded: its inhibitory activity is weaker than that the compound of 6b
- inhibitory effect sequence on transplantation tumor growth from strong to weak ([2]; 0.00554 mmol/kg oral gavage): 6b>6f>6q>MLN9708
- onset time / effective time of controlling tumor growth (in words) ([2]; 0.00554 mmol/kg oral gavage): longer onset time to control tumor growth than that of the compound 6b
- area under the curve of tumor volume vs. time curve, ascending sequence ([2]; 0.00554 mmol/kg oral gavage): compound 6b<compound 6f<compound 6q
- tumor weight (g) [2, 4]: 0.741 ± 0.917^★★▴▴ g
- Relative tumor proliferation rate T/C(%) ([2]; day 8): 43.49^▴▴● %
- Relative tumor proliferation rate T/C(%) ([2]; day 12): 31.17%
- Relative tumor proliferation rate T/C(%) ([2]; day 15): 30.15^▴▴ %
- Relative tumor proliferation rate T/C(%) ([2]; day 17): 22.86^▴▴ %
- tumor inhibition rate (%) [2, 5]: 74.82%

Structure (SMILES): CC(C)C[C@H](NC(=O)CNC(=O)c1cc(Cl)ccc1F)B1OC(=O)C(CC(=O)O)(CC(=O)O)O1 [Compound 6q, (R)-2,2′-(2-(1-(2-(2-fluoro-5-chloro-benzoylamino)acetylamino)-3-methylbutyl)-5-oxo-1,3,2-dioxaborolan-4,4-diyl)diacetic acid]
- inhibition of tumor growth (in words) ([2]; 0.00554 mmol/kg oral gavage): can also significantly inhibit tumor growth
- inhibitory effect on tumor growth compared with other test samples ([2]; 0.00554 mmol/kg oral gavage): the inhibitory effect is weaker than that of compound 6b
- inhibitory effect sequence on transplantation tumor growth from strong to weak ([2]; 0.00554 mmol/kg oral gavage): 6b>6f>6q>MLN9708
- onset time / effective time of controlling tumor growth (in words) ([2]; 0.00554 mmol/kg oral gavage): the effective time of controlling tumor growth was longer than the 6f group and significantly longer than the 6b group
- area under the curve of tumor volume vs. time curve, ascending sequence ([2]; 0.00554 mmol/kg oral gavage): compound 6b<compound 6f<compound 6q
- tumor weight (g) [2, 4]: 0.945 ± 0.603^★★▴▴● g
- Relative tumor proliferation rate T/C(%) ([2]; day 8): 47.34^▴▴●● %
- Relative tumor proliferation rate T/C(%) ([2]; day 12): 67.42% and 67.42^▴▴● %
- Relative tumor proliferation rate T/C(%) ([2]; day 15): 45.35^▴▴ %
- Relative tumor proliferation rate T/C(%) ([2]; day 17): 29.00% and 29.20^▴▴ %
- tumor inhibition rate (%) [2, 5]: 67.85%

Structure (SMILES): CC(C)C[C@H](NC(=O)CNC(=O)c1cc(Cl)ccc1Cl)B1OC(=O)C(CC(=O)O)(CC(=O)O)O1 [MLN9708, Ixazomib Citrate, reference compound]
- tumor weight (g) ([1]; 0.00831 mmol/kg oral gavage): 1.782 ± 1.361^★★▴▴ g
- Relative tumor proliferation rate T/C(%) ([1]; day 4): 84.97%
- Relative tumor proliferation rate T/C(%) ([1]; day 8): 59.75%
- Relative tumor proliferation rate T/C(%) ([1]; day 11): 51.05%
- Relative tumor proliferation rate T/C(%) ([1]; day 15): 41.67%
- Relative tumor proliferation rate T/C(%) ([1]; day 19): 56.1%
- tumor inhibition rate (%) [1, 3]: 50.69%
- inhibition of tumor growth (in words) ([2]; 0.00554 mmol/kg oral gavage): no effect on inhibiting tumor growth
- inhibitory effect sequence on transplantation tumor growth from strong to weak ([2]; 0.00554 mmol/kg oral gavage): 6b>6f>6q>MLN9708
- tumor weight [2, 4]: 2.953 ± 0.668 g
- Relative tumor proliferation rate T/C(%) ([2]; day 5): 90.08%
- Relative tumor proliferation rate T/C(%) ([2]; day 8): 112.42%
- Relative tumor proliferation rate T/C(%) ([2]; day 12): 137.07%
- Relative tumor proliferation rate T/C(%) ([2]; day 15): 97.25%
- Relative tumor proliferation rate T/C(%) ([2]; day 17): 84.29%
- tumor inhibition rate (%) [2, 5]: −0.48%
